One molecule from PMC5218480 (PLoS ONE, 2017) can be followed below.

The assay has as its system MV-4-11 cells. Kind of assay: Gene expression microarray analysis (Affymetrix PrimeView) and GSEA. The conditions noted are these: ProbeSet 11754362_a_at; LIST D. It is filed as cell-based, human. Set-up: RFU PODN (11730768_x_at) / Fold change /veh PODN (11730768_x_at) / RFU LINC00158 (11744669_a_at) / Fold change /veh LINC00158 (11744669_a_at) / RFU DUSP10 (11751237_a_at) / Fold change /veh DUSP10 (11751237_a_at) / RFU ID3 (11757404_x_at) / Fold change /veh ID3 (11757404_x_at) / RFU PLEKHG5 (11737974_s_at) / Fold change /veh PLEKHG5 (11737974_s_at) / RFU LRRC4B (11730491_at) / Fold change /veh LRRC4B (11730491_at) / RFU GIMAP4 (11747438_a_at) / Fold change /veh GIMAP4 (11747438_a_at) / RFU KRT8 (11758183_x_at) / Fold change /veh KRT8 (11758183_x_at) / RFU CNN1 (11734310_a_at) / Fold change /veh CNN1 (11734310_a_at) / RFU VPS37D (11726825_at) / Fold change /veh VPS37D (11726825_at) / RFU C10orf10 (11716522_x_at) / Fold change /veh C10orf10 (11716522_x_at) / RFU KIR2DL2 /// KIR2DL4 /// KIR2DL5A /// KIR2DL5B /// KIR2DS1 /// KIR2DS2 /// KIR2DS3 /// KIR2DS4 /// KIR3DL3 /// KIR3DL3 /// KIR3DS1 (11738374_at) / Fold change /veh KIR2DL2 /// KIR2DL4 /// KIR2DL5A /// KIR2DL5B /// KIR2DS1 /// KIR2DS2 /// KIR2DS3 /// KIR2DS4 /// KIR3DL3 /// KIR3DL3 /// KIR3DS1 (11738374_at) / RFU C1QL1 (11718748_at) / Fold change /veh C1QL1 (11718748_at) / RFU TMPRSS4 (11747572_a_at) / Fold change /veh TMPRSS4 (11747572_a_at) / RFU HAMP (11756126_x_at) / Fold change /veh HAMP (11756126_x_at) / RFU RNFT2 (11725882_a_at) / Fold change /veh RNFT2 (11725882_a_at) / RFU NR4A2 (11747474_a_at) / Fold change /veh NR4A2 (11747474_a_at) / RFU ABCC12 (11746883_a_at) / Fold change /veh ABCC12 (11746883_a_at) / RFU TMEM136 (11760407_x_at) / Fold change /veh TMEM136 (11760407_x_at) / RFU CLDN22 /// WWC2 (11732394_at) / Fold change /veh CLDN22 /// WWC2 (11732394_at) / RFU HLA-DPB1 (11760878_x_at) / Fold change /veh HLA-DPB1 (11760878_x_at) / RFU SPINT1 (11716480_a_at) / Fold change /veh SPINT1 (11716480_a_at) / RFU GAP43 (11754022_s_at) / Fold change /veh GAP43 (11754022_s_at) / RFU A4GNT (11735810_at) / Fold change /veh A4GNT (11735810_at) / RFU PRB3 (11715151_x_at) / Fold change /veh PRB3 (11715151_x_at) / RFU TUBB4B (11761932_at) / Fold change /veh TUBB4B (11761932_at) / RFU CAPN14 (11732068_a_at) / Fold change /veh CAPN14 (11732068_a_at) / RFU TMCC2 (11721928_a_at) / Fold change /veh TMCC2 (11721928_a_at) / RFU IRGQ (11745062_a_at) / Fold change /veh IRGQ (11745062_a_at) / RFU FAM174B (11720279_a_at) / Fold change /veh FAM174B (11720279_a_at) / RFU TMPRSS4 (11748680_a_at) / Fold change /veh TMPRSS4 (11748680_a_at) / RFU FAM212B (11763350_a_at) / Fold change /veh FAM212B (11763350_a_at) / RFU PLEKHG5 (11743358_a_at) / Fold change /veh PLEKHG5 (11743358_a_at) / RFU ZSCAN30 (11745921_a_at) / Fold change /veh ZSCAN30 (11745921_a_at) / RFU CMKLR1 (11741424_a_at) / Fold change /veh CMKLR1 (11741424_a_at) / RFU LOC101060620 /// MAPK8IP1 (11723275_at) / Fold change /veh LOC101060620 /// MAPK8IP1 (11723275_at) / RFU SPTSSB (11747773_x_at) / Fold change /veh SPTSSB (11747773_x_at) / RFU PRSS12 (11739890_at) / Fold change /veh PRSS12 (11739890_at) / RFU BIN1 (11741810_x_at) / Fold change /veh BIN1 (11741810_x_at) / RFU WNT11 (11732464_a_at) / Fold change /veh WNT11 (11732464_a_at) / RFU C10orf10 (11716521_a_at) / Fold change /veh C10orf10 (11716521_a_at) / RFU C5orf56 (11738089_at) / Fold change /veh C5orf56 (11738089_at) / RFU CYB561 (11721691_x_at) / Fold change /veh CYB561 (11721691_x_at) / RFU ANKRD19P (11752326_a_at) / Fold change /veh ANKRD19P (11752326_a_at) / RFU OR2T12 /// OR2T33 /// OR2T8 (11738714_s_at) / Fold change /veh OR2T12 /// OR2T33 /// OR2T8 (11738714_s_at) / RFU VCAN (11748164_a_at) / Fold change /veh VCAN (11748164_a_at) / RFU JSRP1 (11732532_at) / Fold change /veh JSRP1 (11732532_at) / RFU KRTAP10-11 (11738290_x_at) / Fold change /veh KRTAP10-11 (11738290_x_at) / RFU MYO3A (11730013_a_at) / Fold change /veh MYO3A (11730013_a_at) / RFU EBF3 (11725865_a_at) / Fold change /veh EBF3 (11725865_a_at) / RFU CAMK2N1 (11719241_x_at) / Fold change /veh CAMK2N1 (11719241_x_at) / RFU C5orf56 (11738088_a_at) / Fold change /veh C5orf56 (11738088_a_at) / RFU OLFML3 (11715873_a_at) / Fold change /veh OLFML3 (11715873_a_at) / RFU LOC100653217 /// NTM (11731650_a_at) / Fold change /veh LOC100653217 /// NTM (11731650_a_at) / RFU MAPK11 (11762145_a_at) / Fold change /veh MAPK11 (11762145_a_at) / RFU FIZ1 (11724087_x_at) / Fold change /veh FIZ1 (11724087_x_at) / RFU OASL (11726364_x_at) / Fold change /veh OASL (11726364_x_at) / RFU SOX15 (11748057_x_at) / Fold change /veh SOX15 (11748057_x_at) / RFU CD79A (11719716_a_at) / Fold change /veh CD79A (11719716_a_at) / RFU HIST1H1D (11736915_at) / Fold change /veh HIST1H1D (11736915_at) / RFU CASKIN2 (11723855_a_at) / Fold change /veh CASKIN2 (11723855_a_at) / RFU LOC730098 (11760151_x_at) / Fold change /veh LOC730098 (11760151_x_at) / RFU OR4N2 (11742367_at) / Fold change /veh OR4N2 (11742367_at) / RFU PRRT2 (11749266_a_at) / Fold change /veh PRRT2 (11749266_a_at) / RFU SNX32 (11753110_a_at) / Fold change /veh SNX32 (11753110_a_at) / RFU CDHR5 (11726645_a_at) / Fold change /veh CDHR5 (11726645_a_at) / RFU RCAN1 (11760418_a_at) / Fold change /veh RCAN1 (11760418_a_at) / RFU FAM167A (11723789_a_at) / Fold change /veh FAM167A (11723789_a_at) / RFU FAM26E (11764081_at) / Fold change /veh FAM26E (11764081_at) / RFU ISYNA1 (11749810_s_at) / Fold change /veh ISYNA1 (11749810_s_at) / RFU ACY1 (11761880_at) / Fold change /veh ACY1 (11761880_at) / RFU 11764098_at / Fold change /veh 11764098_at / RFU SAMD14 (11745864_x_at) / Fold change /veh SAMD14 (11745864_x_at) / RFU NPB (11741838_a_at) / Fold change /veh NPB (11741838_a_at) / RFU TMPRSS6 (11731388_a_at) / Fold change /veh TMPRSS6 (11731388_a_at) / RFU KRTAP10-2 (11738614_at) / Fold change /veh KRTAP10-2 (11738614_at) / RFU ARHGAP8 /// PRR5-ARHGAP8 (11727945_x_at) / Fold change /veh ARHGAP8 /// PRR5-ARHGAP8 (11727945_x_at) / RFU KRTAP5-7 /// NADSYN1 (11734609_at) / Fold change /veh KRTAP5-7 /// NADSYN1 (11734609_at) / RFU RASL12 (11751679_a_at) / Fold change /veh RASL12 (11751679_a_at) / RFU CDKN2B (11736163_a_at) / Fold change /veh CDKN2B (11736163_a_at) / RFU PRF1 (11729649_at) / Fold change /veh PRF1 (11729649_at) / RFU, ZNF638 /// ZNF638-IT1 / Fold change vs veh, ZNF638 /// ZNF638-IT1 / RFU, PANK3 / Fold change vs veh, PANK3 / RFU, SH3YL1 / Fold change vs veh, SH3YL1 / RFU, ZEB2 / Fold change vs veh, ZEB2 / RFU, NRIP1 / Fold change vs veh, NRIP1 / RFU, PTTG1IP / Fold change vs veh, PTTG1IP / RFU, CAPN2 / Fold change vs veh, CAPN2 / RFU, MED14 / Fold change vs veh, MED14 / RFU, SNORA58 / Fold change vs veh, SNORA58 / RFU, C1orf63 / Fold change vs veh, C1orf63 / RFU, LRRFIP1 / Fold change vs veh, LRRFIP1 / RFU, NDUFAF7 / Fold change vs veh, NDUFAF7 / RFU, SLC12A2 / Fold change vs veh, SLC12A2 / RFU, IBTK / Fold change vs veh, IBTK / RFU, ESF1 / Fold change vs veh, ESF1 / Fold change vs veh, TMEM50B / RFU, TAOK1 / Fold change vs veh, TAOK1 / RFU, ACBD3 / Fold change vs veh, ACBD3 / RFU, TMA16 / Fold change vs veh, TMA16 / RFU, RWDD3 / Fold change vs veh, RWDD3 / RFU, BCAT1 / Fold change vs veh, BCAT1 / RFU, EDEM3 / Fold change vs veh, EDEM3 / RFU, TMEM33 / Fold change vs veh, TMEM33 / RFU, WDR75 / Fold change vs veh, WDR75 / RFU, AHCTF1 / Fold change vs veh, AHCTF1 / RFU, TFRC / Fold change vs veh, TFRC / RFU, ZDHHC17 / Fold change vs veh, ZDHHC17 / RFU, NOM1 / Fold change vs veh, NOM1 / RFU, ARL8B / Fold change vs veh, ARL8B / RFU, ZBTB11 / Fold change vs veh, ZBTB11 / RFU, TAMM41 / Fold change vs veh, TAMM41 / RFU, KIAA1704 /// LOC100996395 / Fold change vs veh, KIAA1704 /// LOC100996395 / RFU, ING1 / Fold change vs veh, ING1 / RFU, TRMT61B / Fold change vs veh, TRMT61B / RFU, FUBP3 / Fold change vs veh, FUBP3 / RFU, TP53 / Fold change vs veh, TP53 / RFU, TNKS2 / Fold change vs veh, TNKS2 / RFU, ZFP14 / Fold change vs veh, ZFP14 / RFU, ACTR2 / Fold change vs veh, ACTR2 / RFU, PPP3R1 / Fold change vs veh, PPP3R1 / RFU, PIK3R1 / Fold change vs veh, PIK3R1 / RFU, HNRNPA1 / Fold change vs veh, HNRNPA1 / RFU, RNF170 / Fold change vs veh, RNF170 / RFU, ZNF28 / Fold change vs veh, ZNF28 / RFU, RNGTT / Fold change vs veh, RNGTT / RFU, OGT / Fold change vs veh, OGT / RFU, BRD1 / Fold change vs veh, BRD1 / RFU, MARS / Fold change vs veh, MARS / RFU, ZNF655 / Fold change vs veh, ZNF655 / RFU, FAHD1 / Fold change vs veh, FAHD1 / RFU, BDP1 / Fold change vs veh, BDP1 / RFU, LRRCC1 / Fold change vs veh, LRRCC1 / RFU, ARID1A / Fold change vs veh, ARID1A / RFU, ZNF146 / Fold change vs veh, ZNF146 / RFU, ZNF330 / Fold change vs veh, ZNF330 / RFU, GPN3 / Fold change vs veh, GPN3 / RFU, C9orf123 / Fold change vs veh, C9orf123 / RFU, N4BP2L2 / Fold change vs veh, N4BP2L2 / RFU, ARFIP1 / Fold change vs veh, ARFIP1 / RFU, FAM179B / Fold change vs veh, FAM179B / RFU, BCL10 / Fold change vs veh, BCL10 / RFU, UHRF1BP1L / Fold change vs veh, UHRF1BP1L / RFU, BET1 / Fold change vs veh, BET1 / RFU, CNOT2 / Fold change vs veh, CNOT2 / RFU, ZNF268 / Fold change vs veh, ZNF268 / Fold change vs veh, ZNF507 / RFU, DGCR2 / Fold change vs veh, DGCR2 / RFU, WDSUB1 / Fold change vs veh, WDSUB1 / Fold change vs veh, HSP90B1 /// MIR3652 / RFU, ADSS / Fold change vs veh, ADSS / RFU, GK / Fold change vs veh, GK / RFU, ZNF148 / Fold change vs veh, ZNF148 / RFU, TAF9 / Fold change vs veh, TAF9 / RFU, SLC1A5 / Fold change vs veh, SLC1A5 / RFU, SLMO2 / Fold change vs veh, SLMO2 / RFU, ABCC4 / Fold change vs veh, ABCC4 / RFU, LOC101060439 /// RAP1B / Fold change vs veh, LOC101060439 /// RAP1B / RFU, RFX7 / Fold change vs veh, RFX7 / RFU, GTPBP10 / Fold change vs veh, GTPBP10 / RFU, CNEP1R1 / Fold change vs veh, CNEP1R1 / RFU, BIVM-ERCC5 /// ERCC5 / Fold change vs veh, BIVM-ERCC5 /// ERCC5 / RFU, ILF3 / Fold change vs veh, ILF3 / RFU 11762660_at / Fold change /veh 11762660_at / RFU VCAN (11757783_s_at) / Fold change /veh VCAN (11757783_s_at) / RFU DDX43 (11728927_at) / Fold change /veh DDX43 (11728927_at) / RFU KRT8 (11758188_x_at) / Fold change /veh KRT8 (11758188_x_at) / RFU NKD1 (11759106_at) / Fold change /veh NKD1 (11759106_at) / RFU SRD5A1 (11742802_a_at) / Fold change /veh SRD5A1 (11742802_a_at) / RFU TPSAB1 /// TPSB2 (11721975_s_at) / Fold change /veh TPSAB1 /// TPSB2 (11721975_s_at) / RFU GSTM3 (11746129_a_at) / Fold change /veh GSTM3 (11746129_a_at) / RFU IL23R (11737362_x_at) / Fold change /veh IL23R (11737362_x_at) / RFU TMEM51 (11727254_a_at) / Fold change /veh TMEM51 (11727254_a_at) / RFU PIWIL2 (11732686_x_at) / Fold change /veh PIWIL2 (11732686_x_at) / RFU ORM1 (11744905_x_at) / Fold change /veh ORM1 (11744905_x_at) / RFU CCDC152 (11743942_at) / Fold change /veh CCDC152 (11743942_at) / RFU ECM1 (11717891_a_at) / Fold change /veh ECM1 (11717891_a_at) / RFU IL23R (11748794_a_at) / Fold change /veh IL23R (11748794_a_at) / RFU TNFAIP8L3 (11732012_x_at) / Fold change /veh TNFAIP8L3 (11732012_x_at) / RFU MBOAT4 (11741988_at) / Fold change /veh MBOAT4 (11741988_at) / RFU 11764193_at / Fold change /veh 11764193_at / RFU TMEM53 (11763286_at) / Fold change /veh TMEM53 (11763286_at) / RFU MAGEB2 (11727129_at) / Fold change /veh MAGEB2 (11727129_at) / RFU TMEM200A (11744735_a_at) / Fold change /veh TMEM200A (11744735_a_at) / RFU CCDC152 (11751479_a_at) / Fold change /veh CCDC152 (11751479_a_at) / RFU FAM211A (11726209_a_at) / Fold change /veh FAM211A (11726209_a_at) / RFU RGS16 (11746705_a_at) / Fold change /veh RGS16 (11746705_a_at) / RFU VCAN (11755009_s_at) / Fold change /veh VCAN (11755009_s_at) / RFU RHOB (11743442_s_at) / Fold change /veh RHOB (11743442_s_at) / RFU RGS16 (11720943_a_at) / Fold change /veh RGS16 (11720943_a_at) / RFU RGS16 (11720944_at) / Fold change /veh RGS16 (11720944_at) / RFU, VPS4B / Fold change vs veh, VPS4B / RFU, CREB1 / Fold change vs veh, CREB1 / RFU, DNAJC13 / Fold change vs veh, DNAJC13 / RFU, GNAQ / Fold change vs veh, GNAQ / RFU, CDK5R1 / Fold change vs veh, CDK5R1 / RFU, ZRANB3 / Fold change vs veh, ZRANB3 / RFU, CUL4A / Fold change vs veh, CUL4A / RFU, CCNY / Fold change vs veh, CCNY / RFU, UFL1 / Fold change vs veh, UFL1 / RFU, COG3 / Fold change vs veh, COG3 / RFU, DIAPH2 / Fold change vs veh, DIAPH2 / RFU, SKA2 / Fold change vs veh, SKA2 / RFU, AFF3 / Fold change vs veh, AFF3 / RFU, LMF1 / Fold change vs veh, LMF1 / RFU, IPO11 / Fold change vs veh, IPO11 / RFU, DFFB / Fold change vs veh, DFFB / RFU, FOXP1 / Fold change vs veh, FOXP1 / RFU, CARD8 / Fold change vs veh, CARD8 / RFU, STRN3 / Fold change vs veh, STRN3 / RFU, ADK / Fold change vs veh, ADK / RFU, RASSF2 / Fold change vs veh, RASSF2 / RFU, WIPF1 / Fold change vs veh, WIPF1 / RFU, LARP1B / Fold change vs veh, LARP1B / RFU, RASA1 / Fold change vs veh, RASA1 / RFU, RB1 / Fold change vs veh, RB1 / RFU, PPFIA1 / Fold change vs veh, PPFIA1 / RFU, MAT2A / Fold change vs veh, MAT2A / RFU, CCT5 / Fold change vs veh, CCT5 / RFU, WDR92 / Fold change vs veh, WDR92 / RFU, CUX1 / Fold change vs veh, CUX1 / RFU, TTC7A / Fold change vs veh, TTC7A / RFU, TMEM135 / Fold change vs veh, TMEM135 / RFU, DEPTOR / Fold change vs veh, DEPTOR / RFU, CPM / Fold change vs veh, CPM / RFU, DNAJB6 / Fold change vs veh, DNAJB6 / RFU, CACNA2D3 / Fold change vs veh, CACNA2D3 / RFU, DTX4 / Fold change vs veh, DTX4 / RFU, TFCP2 / Fold change vs veh, TFCP2 / RFU, GMCL1 /// GMCL1P1 / Fold change vs veh, GMCL1 /// GMCL1P1 / RFU, AEBP2 / Fold change vs veh, AEBP2 / RFU, SNHG1 /// SNORD22 /// SNORD25 /// SNORD26 /// SNORD27 /// SNORD28 /// SNORD29 /// SNORD31 / Fold change vs veh, SNHG1 /// SNORD22 /// SNORD25 /// SNORD26 /// SNORD27 /// SNORD28 /// SNORD29 /// SNORD31 / Fold change (Aza/veh), C12orf56 (ProbeSet 11735607_a_at) / Fold change (ACY-1035/veh), C12orf56 (ProbeSet 11735607_a_at) / Fold change (Aza/veh), FGFR1OP (ProbeSet 11751329_s_at) / Fold change (ACY-1035/veh), FGFR1OP (ProbeSet 11751329_s_at) / Fold change (Aza/veh), VPS36 (ProbeSet 11739960_a_at) / Fold change (ACY-1035/veh), VPS36 (ProbeSet 11739960_a_at) / RFU SYPL1 (11715823_x_at) / Fold change /veh SYPL1 (11715823_x_at) / RFU IGFBP7 (11715501_s_at) / Fold change /veh IGFBP7 (11715501_s_at) / RFU REEP3 (11722064_at) / Fold change /veh REEP3 (11722064_at) / RFU IGLL1 (11728026_x_at) / Fold change /veh IGLL1 (11728026_x_at): dose or concentration left out as unconfirmed.

Regarding `Nc1ncn([C@@H]2O[C@H](CO)[C@@H](O)[C@H]2O)c(=O)n1` [azacitidine], the “Fold change vs veh, TTC7A” value was found to be 0.72.
